Results on one compound are retold here after patent US20160136229A1, “MATERIALS FOR POSITIVE CATHEPSIN B MODULATION AND METHODS OF USE FOR TREATING MILD COGNITIVE IMPAIRMENT (MCI), EARLY DEMENTIA, A-SYNUCLEINOPATHY, TRAUMATIC BRAIN INJURY, CARDIOMYOPATHY, EYE DISEASE AND SKIN DAMAGE” (University of North Carolina at Pembroke, priority 2013, published 2016).

Data set [1] addresses cathepsin B (Mus musculus, UniProt P10605). Nature of the data set: Cathepsin B species immunoblot in heart tissue of A53T mice. The note with it: A53T mice; i.p., 18 mg/kg/day. Further details: heart tissue was obtained to test for changes in cathepsin B; from tissue; host or cells: mouse heart, wild-type and A53T transgenic (A16). Format: in vivo. As for the experimental part:
(§1) FIG. 8. PADK also enhances cathepsin B species in the heart. The A53T early α-synucleinopathy mouse model was injected daily with vehicle or PADK (i.p., 18 mg/kg/day) to test for changes in heart tissue. […] Positions of molecular weight standards (kDa) are shown on the left side of the immunoblot. (B) In the lower graph, ratios between CB-30 and CB-105 (mean±SEM) provide a good example of the unique PADK effect on cathepsin B species in the heart. **P<0.01 as compared to vehicle-treated A53T mice.
(§2) Ratio measures between the 30-kDa form and the 105-kDa species indicate a unique PADK effect on cathepsin B species in the heart (FIG. 8 bar graph).

Another data set relates to PHF-tau. The note with it: cited from earlier work.
Data set [2] has as its system human A53T α-synuclein transgenic mice. Briefly: Open field test in A53T α-synuclein transgenic mice. Format: in vivo, mouse. The note with it: A53T mice 7-8 months; 18 mg/kg/day for 11 days. As for the experimental part: FIG. 5. The cathepsin B modulator PADK also has a behavioral effect during early α-synucleinopathy. Vehicle-treated and PADK in the model of early α-synucleinopathy, human A53T α-synuclein transgenic mice, 7-8 months old, were injected with vehicle or PADK (18 mg/kg/day) for 11 days and their locomotor activity was measured in the open field test (OFT) for two days, center and perimeter crossings were measured. No difference in center crossings was found on day 1 as compared to wild-type mice (left graph), thus an indication of pre-symptomatic early stage Parkinson's disease (PD) before typical locomotor deficits. However, center crossings are often used as a measure of altered anxiety in PD mice. […] The altered anxiety in the vehicle-treated A53T mice appears to be a selective effect since perimeter crossings on day 2 were unchanged (right graph).

Data set [3] relates to cathepsin B. Briefly: Cathepsin B species immunoblot in heart tissue of A53T mice. Type of data set: in vivo, mouse. As for the experimental part: as §1, §2
A general note: In western blotting, separated proteins are transferred to a membrane and probed.

The subject of another data set is rats. Briefly: Adverse effect observation after oral dosing in rats. Format: in vivo, rat. The note with it: 15 mg/kg twice a day, 10 days.
For the next data set, the target named is T1, active cathepsin (Mus musculus, UniProt P10605).
T1 construct: from tissue; host or cells: brain and CNS regions of mice (PADK-treated mice, A53T transgenic and wild-type mice, C57BL/6 mice)
T1 sequence (P10605 80-333 limits assumed): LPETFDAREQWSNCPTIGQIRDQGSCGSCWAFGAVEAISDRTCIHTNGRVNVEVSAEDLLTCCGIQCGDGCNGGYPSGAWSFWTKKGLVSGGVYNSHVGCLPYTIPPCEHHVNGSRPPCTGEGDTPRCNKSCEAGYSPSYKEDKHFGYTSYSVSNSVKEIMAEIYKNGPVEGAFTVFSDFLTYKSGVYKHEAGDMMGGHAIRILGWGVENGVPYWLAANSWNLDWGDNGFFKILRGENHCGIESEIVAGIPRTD
Nature of the data set: Active cathepsin in brain samples of PADK-injected C57BL/6 mice. The note with it: ip daily for 9 days. Type of data set: in vivo.

Data set [4] has as its target T2, active form of cathepsin B (Mus musculus, UniProt P10605).
T2 construct: from tissue; host or cells: brain and CNS regions of mice (PADK-treated mice, A53T transgenic and wild-type mice, C57BL/6 mice)
Nature of the data set: Active cathepsin B immunoblot in CNS regions of A53T α-synuclein transgenic mice. Format: in vivo. The note with it: i.p., 18 mg/kg/day. As for the experimental part: FIG. 4. Enhancing lysosome efficiency with the cathepsin B modulator PADK leads to reductions of multiple types of proteinopathy-related accumulation events. […] Age-matched wild-type mice (wt) and 9-10-month mutant human APP mice, a model of early dementia, treated with or without PADK were assessed for the 4-kDa Δβ peptide, the active form of cathepsin B (act CB), and other proteins in hippocampal samples (C). Similar treatment groups used another APP mouse model at 20-22 months of age to measure clearance of APP carboxyterminal fragments APP-αCTF and APP-βCTF (D). Rat hippocampal slice cultures from the untreated control group (con) and slices treated with submicromolar Δβ42 (early tauopathy model) in the absence or presence of PADK (5 μM for 4 days) were assessed for phosphorylated tau (pTau) and other proteins (E). For a model of early α-synucleinopathy, human A53T α-synuclein transgenic mice, at 7 months old, were studied with or without PADK treatment and assessed for human α-synuclein (α-syn) in TX-100 extracts of hippocampus and for other proteins in hippocampal homogenates (F). Plotted data (±SEM) were compared to neighboring vehicle groups by unpaired t-tests: *p=0.02, **p<0.01, ***p<0.001. APPswind and APP-PS1 mice are described in Butler et al., (2011), the entire content of which is hereby incorporated herein by reference.
FIG. 6. […]

[5] abbreviates: low-level PADK, hippocampal slice model of protein accumulation.

Each structure is given as a SMILES string.

T2 sequence (P10605 80-333 limits assumed): as above
Chain of cathepsin B (Mus musculus, UniProt P10605) (P10605 80-333): as the sequence (P10605 80-333 limits assumed) above

Turning to `C[C@H](NC(=O)[C@H](Cc1ccccc1)NC(=O)OCc1ccccc1)C(=O)C=[N+]=[N-]` [PADK, N-carbobenzyloxy-L-phenylalanyl-L-alanyl-diazomethylketone], the “active form of cathepsin B (CB-30) in heart” value at cathepsin B [1] is “robust PADK-mediated increase”. Moreover, the “microtubule stability markers, transport function, and synaptic proteins” value in the data set with PHF-tau (following PADK-mediated tau clearance) is “recovery”. Moreover, in the data set with PHF-tau (setting [5]), the PHF-tau result is “attenuates” and the synaptic decline result is listed as “attenuates”. The “tau aggregates and tau-related pathology” value in the data set on PHF-tau (when CatB activity was increased with PADK) is “Reduction”. Also, the “center crossings on day 2 (altered anxiety)” value in data set [2] was “did not consistently exhibit such a positive trend”. Besides, in the data set on cathepsin B [3] (A53T mice, i.p., 18 mg/kg/day), the “high molecular weight cathepsin B species (CB-80, CB-85, CB-105) in heart” value is “returned the high molecular weight species to near normal levels”. Moreover, the “ratio between active cathepsin B form of 30 kDa and the precursor of >100 kDa” value in the data set on cathepsin B [3] (heart tissue, p<0.01 vs vehicle-treated A53T mice) is recorded as “enhances the ratio”. The “adverse effects during behavioral tests” value with rats is “no evidence of adverse effects”. At active cathepsin, the “active cathepsin in brain samples” value is recorded as “dose-dependent increase”. Also, the “active CatB levels increase in brains” value in data set [4] (7-8 months) was 3-6 fold. The “active form of cathepsin B across CNS regions (immunoblot)” value in data set [4] (7 months, p<0.02 vs vehicle-treated tg) is listed as “robust PADK-mediated increase”.
